This assay relates to BDF1 mice, P388 leukemia ip, median survival T/C. The experiment in a line: NCI In Vivo Anticancer Drug Screen. Data for tumor model P388 Leukemia (intraperitoneal) in B6D2F1 (BDF1) mice. The conditions noted are these: endpoint: median survival time, higher = longer survival. In outline: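 T/C = treated-group survival ÷ vehicle-control survival; tumour transplanted into mice before dosing.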

[1] abbreviates: dose: 100.0 mg/kg/injection, schedule: Q01DX009 (ip), vehicle: Klucel (hydroxypropylcellulose) (HPC).
The mark [2] stands for this setting: dose: 100.0 mg/kg/injection, schedule: Q04DX003 (ip), vehicle: Klucel (hydroxypropylcellulose) (HPC).
Where [3] appears, read: dose: 200.0 mg/kg/injection, schedule: Q01DX009 (ip), vehicle: Klucel (hydroxypropylcellulose) (HPC).
Setting [4] is: dose: 200.0 mg/kg/injection, schedule: Q04DX003 (ip), vehicle: Klucel (hydroxypropylcellulose) (HPC).
Where [5] appears, read: dose: 400.0 mg/kg/injection, schedule: Q01DX009 (ip), vehicle: Klucel (hydroxypropylcellulose) (HPC).
Where [6] appears, read: dose: 400.0 mg/kg/injection, schedule: Q04DX003 (ip), vehicle: Klucel (hydroxypropylcellulose) (HPC).
Setting [7] is: dose: 25.0 mg/kg/injection, schedule: Q01DX009 (ip), vehicle: saline with Tween-80.
Setting [8] is: dose: 50.0 mg/kg/injection, schedule: Q01DX009 (ip), vehicle: saline with Tween-80.
Where [9] appears, read: dose: 100.0 mg/kg/injection, schedule: Q01DX009 (ip), vehicle: saline with Tween-80.
Setting [10] is: dose: 200.0 mg/kg/injection, schedule: Q01DX009 (ip), vehicle: saline with Tween-80.
Where [11] appears, read: dose: 12.5 mg/kg/injection, schedule: Q01DX009 (ip), vehicle: saline with Tween-80.
Where [12] appears, read: dose: 25.0 mg/kg/injection, schedule: Q04DX003 (ip), vehicle: saline.
[13] abbreviates: dose: 400.0 mg/kg/injection, schedule: Q01DX009 (ip), vehicle: saline with Tween-80.
Setting [14] is: dose: 50.0 mg/kg/injection, schedule: Q01DX009 (ip), vehicle: saline.
[15] abbreviates: dose: 100.0 mg/kg/injection, schedule: Q04DX003 (ip), vehicle: saline.

Values joined by “and” are separate entries in the source; they are usually repeats but may differ in a detail not shown here. Equal entries are not always repeated. Toxic doses and inconclusive results are not listed. Residues, ends and D or L forms follow the SMILES beside them. *: point of attachment. Cbz = O=C(OCc1ccccc1)*; Bn = c1ccc(C*)cc1

On to `CC1(C#N)c2ccccc2C=CN1C(=O)c1ccccc1` (centres undefined), for which the T/C reads like this: under setting [1], 90 % of control; under setting [2], 100 % of control; under setting [3], 100 % of control; under setting [4], 95 % of control; under setting [5], 100 % of control; under setting [6], 100 % of control.

Regarding `COC(=O)CCSC(c1ccccc1)(c1ccccc1)c1ccccc1`, under “dose: 87.0 mg/kg/injection, schedule: Q01DX009 (ip), vehicle: Klucel (hydroxypropylcellulose) (HPC)”, the T/C is 96 % of control.

As to `CCCCCCCCCC(=O)NC(COC1OC(CO)C(O)C(O)C1O)C(O)c1ccccc1` (centres undefined), the T/C reads like this: (dose: 25.0 mg/kg/injection, schedule: Q01DX009 (ip), vehicle: suspension in saline) 98 % of control; (dose: 50.0 mg/kg/injection, schedule: Q01DX009 (ip), vehicle: suspension in saline) 108 % of control; (dose: 100.0 mg/kg/injection, schedule: Q01DX009 (ip), vehicle: suspension in saline) 102 % of control.

Consider `Oc1ccc(Nc2c3ccccc3nc3c2ccc2ccccc23)cc1CN(CCCl)CCCl`, for which the T/C is, setting by setting: (dose: 0.08 mg/kg/injection, schedule: Q01DX009 (ip), vehicle: saline) 100 % of control; (dose: 0.12 mg/kg/injection, schedule: Q01DX009 (ip), vehicle: saline) 90 % of control; (dose: 0.51 mg/kg/injection, schedule: Q01DX009 (ip), vehicle: saline) 168 % of control; (dose: 0.52 mg/kg/injection, schedule: Q01DX009 (ip), vehicle: saline) 110 % of control; (dose: 1.02 mg/kg/injection, schedule: Q01DX009 (ip), vehicle: saline) 100 % of control; (dose: 1.1 mg/kg/injection, schedule: Q01DX009 (ip), vehicle: saline) 163 % of control. The T/C (dose: 1.17 mg/kg/injection, schedule: Q01DX009 (ip), vehicle: saline) is 100 % of control; the T/C (dose: 1.56 mg/kg/injection, schedule: Q01DX009 (ip), vehicle: saline) was 109 % of control; the T/C (dose: 1.65 mg/kg/injection, schedule: Q04DX003 (ip), vehicle: saline) is 159 % of control; the T/C (dose: 2.1 mg/kg/injection, schedule: Q04DX003 (ip), vehicle: saline) is 100 % of control; the T/C (dose: 2.34 mg/kg/injection, schedule: Q01DX009 (ip), vehicle: saline) is 168 % of control.

Regarding `CC(Nc1ccc(Br)cc1[N+](=O)[O-])C(=O)O` (centres undefined), the T/C is, setting by setting: under setting [7], 122 % of control; under setting [8], 94 % of control; under setting [9], 112 % of control; under setting [10], 114 % of control.

Regarding `O=[N+]([O-])c1ccc(N2[C@@H]3C4CCC([C@@H]32)C42OCCO2)cc1`, the T/C runs as follows: (dose: 50.0 mg/kg/injection, schedule: Q01DX001 (ip), vehicle: saline with Tween-80) 93 % of control; (dose: 100.0 mg/kg/injection, schedule: Q01DX001 (ip), vehicle: saline with Tween-80) 118 % of control; (dose: 200.0 mg/kg/injection, schedule: Q01DX001 (ip), vehicle: saline with Tween-80) 93 % of control.

Take `CCN1c2ccccc2CC(CCN(C)Cc2ccccc2)(C(N)=O)c2ccccc21` (centres undefined): the T/C under setting [9] was 101 % of control.

`Cc1cc2c(cc1C)NC(=O)CC(=O)N2`: the T/C is 100 % of control under setting [2], 86 % of control under setting [4] and 86 % of control under setting [6].

With `c1cc(Nc2ccncc2)ccn1`, the T/C is 96 % of control (dose: 6.25 mg/kg/injection, schedule: Q01DX009 (ip), vehicle: saline with Tween-80); 115 % of control (dose: 6.25 mg/kg/injection, schedule: Q04DX003 (ip), vehicle: saline); 104 % of control under setting [11]; 92 % of control (dose: 12.5 mg/kg/injection, schedule: Q04DX003 (ip), vehicle: saline); 108 % of control under setting [7]; 107 % of control under setting [12].

On to `CCCCCCOC(CN(C)C)C(Cl)(Cl)Cl` (centres undefined), for which the T/C under setting [8] is 124 % of control, the T/C under setting [9] is 107 % of control and the T/C under setting [10] was 116 % of control.

`CC(C)CC(NC(=O)C1CCCN1C(=O)C(CSCc1ccccc1)NC(=O)C(CC(N)=O)NC(=O)C(CCC(N)=O)NC(=O)OCc1ccccc1)C(=O)NCC(N)=O` (centres undefined) (Cbz-QNC(Bn)PLG-NH2; configuration not given here): the T/C is 105 % of control under setting [2], 102 % of control under setting [4] and 98 % of control under setting [6].

Turning to `Clc1ccc(N=Cc2ccc(C=Nc3ccc(Cl)c(Cl)c3)cc2)cc1Cl`, the T/C reads like this: under setting [2], 100 % of control; under setting [4], 90 % of control; under setting [6], 100 % of control.

Consider `CC1(C)CC(=O)C=C(NC2CCCCC2)C1`, for which the T/C by setting is: (dose: 50.0 mg/kg/injection, schedule: Q04DX003 (ip), vehicle: saline sonified) 90 % of control; (dose: 100.0 mg/kg/injection, schedule: Q04DX003 (ip), vehicle: saline sonified) 109 % of control; (dose: 200.0 mg/kg/injection, schedule: Q04DX003 (ip), vehicle: saline sonified) 100 % of control.

Take `O/N=C1\CCCc2ccc(F)cc21`: the T/C under setting [7] is 100 % of control; the T/C under setting [8] is 106 % of control and 108 % of control; the T/C under setting [9] was 106 % of control; the T/C under setting [10] is 109 % of control and 120 % of control.

Consider `CN(Nc1c([N+](=O)[O-])cc([N+](=O)[O-])cc1[N+](=O)[O-])c1ccc2ccccc2c1`, for which the T/C runs as follows: under setting [1], 120 % of control; under setting [3], 105 % of control; under setting [5], 110 % of control.

Turning to `COc1ncnc2nc[nH]c12`, the T/C is, setting by setting: under setting [9], 95 % of control; (dose: 100.0 mg/kg/injection, schedule: Q04DX003 (ip), vehicle: saline with Tween-80) 100 % of control; under setting [10], 91 % of control; (dose: 200.0 mg/kg/injection, schedule: Q04DX003 (ip), vehicle: saline with Tween-80) 109 % of control; under setting [13], 86 % of control; (dose: 400.0 mg/kg/injection, schedule: Q04DX003 (ip), vehicle: saline with Tween-80) 95 % of control.

For `OCc1cccnc1`, the T/C runs as follows: under setting [14], 93 % of control; (dose: 100.0 mg/kg/injection, schedule: Q01DX009 (ip), vehicle: saline) 100 % of control; (dose: 200.0 mg/kg/injection, schedule: Q01DX009 (ip), vehicle: saline) 100 % of control; (dose: 400.0 mg/kg/injection, schedule: Q01DX009 (ip), vehicle: saline) 108 % of control.

In the case of `CCN1CCN(Cc2ccccc2)C(CCl)C1` (centres undefined), the T/C is, setting by setting: (dose: 12.5 mg/kg/injection, schedule: Q04DX003 (ip), vehicle: Klucel (hydroxypropylcellulose) (HPC)) 100 % of control; (dose: 25.0 mg/kg/injection, schedule: Q04DX003 (ip), vehicle: Klucel (hydroxypropylcellulose) (HPC)) 100 % of control; (dose: 50.0 mg/kg/injection, schedule: Q04DX003 (ip), vehicle: Klucel (hydroxypropylcellulose) (HPC)) 100 % of control.

As to `Cc1ccc(NC(=O)Oc2ccc(Cl)c(C)c2)c([N+](=O)[O-])c1`, the T/C under setting [11] was 108 % of control, the T/C under setting [7] was 102 % of control and the T/C under setting [8] is 117 % of control.

For `COc1cc2ccc(CN3CCCC3C(=O)OCc3ccccc3)cc2cc1OC` (centres undefined), the T/C was 100 % of control under setting [9]; 109 % of control under setting [15]; 104 % of control under setting [10]; 118 % of control (dose: 200.0 mg/kg/injection, schedule: Q04DX003 (ip), vehicle: saline); 116 % of control under setting [13]; 100 % of control (dose: 400.0 mg/kg/injection, schedule: Q04DX003 (ip), vehicle: saline).

Consider `CCOC(=O)/C(C#N)=N\O`, for which the T/C was 100 % of control (dose: 25.0 mg/kg/injection, schedule: Q01DX009 (ip), vehicle: saline); 113 % of control under setting [12]; 120 % of control under setting [14]; 104 % of control (dose: 50.0 mg/kg/injection, schedule: Q04DX003 (ip), vehicle: saline); 95 % of control under setting [15].

Take `COc1cccc(C2NC(=O)c3c(n[nH]c3N)S2)c1O` (centres undefined): the T/C was 103 % of control under setting [8], 99 % of control under setting [9] and 103 % of control under setting [10].

As to `CC(C)(C)C1CCC(C#N)(N=Nc2ccccc2)CC1` (centres undefined), the T/C by setting is: (dose: 50.0 mg/kg/injection, schedule: Q01DX005 (ip), vehicle: saline with Tween-80) 102 % of control; (dose: 100.0 mg/kg/injection, schedule: Q01DX005 (ip), vehicle: saline with Tween-80) 89 % of control.

The record behind these values is PubChem BioAssay AID328 (DTP/NCI, 2004).
